Assays:
[1] = target: T1, PDE5 (PDE5A1) (Homo sapiens, UniProt O76074); assay: Phosphodiesterase 5 inhibition assay (two-step radioactive procedure, [3H]cGMP); type: biochemical; settings: for IC50: flavonoids, mean ± SD, triplicate
T1 construct: made in house; host or cells: HEK293 (transient transfection; supernatant of sonicated homogenate)

[2] = test system: PDE5 enzymes isolated from the mice lungs; parameters: method as in PMID 25920267; settings: cited from earlier work
[3] = target: PDE5 enzymes isolated from the lungs and hearts of male guinea pigs; settings: cited from earlier work
[4] = test system: rabbit corpus cavernosum tissues; parameters: method as in PMID 17968465; settings: rabbit tissue; cited from earlier work

Compound | PDE5 IC50 level (in words) [1] | IC50 [1] [µM] | PDE5 inhibition (in words) [2] | PDE5 inhibitory activity of 3 relative to 1, 2 and 4 ([1]; times stronger than 1, 2, and 4) | IC50 [3] [µM] | Relaxant effect on corpus cavernosum tissues [4]
O=c1c(O)c(-c2ccc(O)c(O[C@@H]3OC[C@@H](O)[C@H](O)[C@H]3O)c2)oc2cc(O)cc(O)c12 [Compound 1, quercetin 3’-O-β-xylopyranoside] | micromolar level | 4.09 ± 0.76 |  |  |  | 
COc1c(-c2ccc(O)c(OC3OCC(O)C(O)C3O)c2)oc2cc(O)cc(O)c2c1=O (stereo not drawn) [Compound 2, quercetin 3-methyl ether 3’-O-β-xylopyranoside] | micromolar level | 5.63 ± 0.2 |  |  |  | 
O=c1c(O)c(-c2ccc(O)c(O)c2)oc2cc(O)cc(O)c12 [Compound 3, quercetin] | micromolar level | 0.61 ± 0.11 | inhibit PDE5 enzymes | 7–9 times |  | 
COc1c(-c2ccc(O)c(O)c2)oc2cc(O)cc(O)c2c1=O [Compound 4, 3-O-methylquercetin] | micromolar level | 5.74 ± 2.11 |  |  | 86.9 | 
O=c1c(O)c(-c2ccc(O)cc2)oc2cc(O)cc(O)c12 [Compound 5, kaempferol] |  |  | inhibit PDE5 enzymes |  |  | 
COc1c(-c2ccc(O)cc2)oc2cc(O)cc(O)c2c1=O [Compound 6, 3-O-methylkaempferol] | micromolar level | 4.41 ± 0.46 |  |  |  | 
COc1ccc(C[C@@H]2c3cc(Oc4cc(C[C@@H]5c6cc(OC)c(OC)cc6CCN5C)ccc4O)c(OC)cc3CCN2C)cc1 [Neferine] |  |  |  |  |  | relaxant effect
